From patent US5693617A, “Inhibitors of the 26s proteolytic complex and the 20s proteasome contained therein” (ProScript, Inc., priority 1995, dated 1997)
Non-standard residues stand in square brackets, D forms with d. Residues, ends and D or L forms follow the SMILES beside them. ξ: configuration not given here. *: point of attachment. 1Nal = N[C@@H](Cc1cccc2ccccc12)C(=O)O; 2Nal = N[CH](Cc1ccc2ccccc2c1)C(=O)O; Cha = N[C@@H](CC1CCCCC1)C(=O)O; Ile(3ξ) = CCC(C)[C@H](N)C(=O)O; Nva = CCC[C@H](N)C(=O)O; Cbz = O=C(OCc1ccccc1)*; Boc = CC(C)(C)OC(=O)*; Bn = c1ccc(C*)cc1

Target: T1, 20S proteasome (Oryctolagus cuniculus, UniProt G1T4Q9)
T1 sequence (G1T4Q9 60-263): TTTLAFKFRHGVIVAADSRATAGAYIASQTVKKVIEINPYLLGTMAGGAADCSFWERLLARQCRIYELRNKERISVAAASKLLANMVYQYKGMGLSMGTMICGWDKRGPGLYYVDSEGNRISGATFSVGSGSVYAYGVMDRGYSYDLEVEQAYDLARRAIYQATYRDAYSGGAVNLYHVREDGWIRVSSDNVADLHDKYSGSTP
T1 sequence (G1SU71 1-241 partner): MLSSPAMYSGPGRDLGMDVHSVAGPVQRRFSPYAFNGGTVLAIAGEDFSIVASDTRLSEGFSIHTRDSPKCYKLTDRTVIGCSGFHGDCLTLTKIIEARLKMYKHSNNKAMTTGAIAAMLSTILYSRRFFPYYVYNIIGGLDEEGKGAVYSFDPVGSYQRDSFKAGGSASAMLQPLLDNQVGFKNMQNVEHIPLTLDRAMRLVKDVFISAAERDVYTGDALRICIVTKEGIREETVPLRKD
Assay: Inhibition of the 20S proteasome peptidase activity (kinetic experiments)
Type: biochemical, Rabbit
Conditions: Rabbit muscle, SDS-activated, substrate Suc-LLVY-AMC; read-out: Ki 20S
Description: Tables I-III summarize results from kinetic experiments that measured the inhibition of the 20S and 26S proteasomes, as well as cathepsin B and calpain, enzymes that may also be involved in muscle protein turnover. In these tables, Ki values are reported, which are dissociation constants for the equilibrium that is established when enzyme and inhibitor interact to form the enzyme:inhibitor complex.
The substances and assay conditions are briefly summarized in the footnotes to Table I. MG 101 and MG 102, also known as Calpain Inhibitor I and II, were purchased from Calbiochem as catalogue products.
(^a) Rabbit muscle. SDSactivated. Substrate: SucLLVYAMC.
For CC(C)C[C@H](NC(=O)OCc1ccccc1)C(=O)N[C@@H](CC(C)C)C(=O)N[C@H](C=O)CC1CCCCC1 [MG 129] (Cbz-Leu-Leu-[Cha]-aldehyde), the Ki was 74 nM. Compound CC(C)C[C@H](NC(=O)OCc1ccccc1)C(=O)N[C@@H](CC(C)C)C(=O)N[C@H](C=O)Cc1ccc(O)cc1 [MG 131] (Cbz-Leu-Leu-Tyr-aldehyde) has a Ki of 7 nM. Work on CC(C)C[C@@H](C=O)NC(=O)[C@H](CC(C)C)NC(=O)[C@H](CC(C)C)NC(=O)OCc1ccccc1 [MG 132] (Cbz-Leu-Leu-Leu-aldehyde) yielded a Ki of 4 nM. Work on CCC(C)[C@@H](C=O)NC(=O)[C@H](CC(C)C)NC(=O)[C@H](CC(C)C)NC(=O)OCc1ccccc1 (stereo partly drawn) [MG 134] (Cbz-Leu-Leu-[Ile(3ξ)]-aldehyde) yielded a Ki of 104 nM. With CCC[C@@H](C=O)NC(=O)[C@H](CC(C)C)NC(=O)[C@H](Cc1cccc2ccccc12)NC(=O)OCc1ccccc1 [MG 142] (Cbz-[1Nal]-Leu-[Nva]-aldehyde) the Ki was 0.2 nM. Work on CC(C)C[C@H](NC(=O)OCc1ccccc1)C(=O)N[C@@H](CC(C)C)C(=O)N[C@H](C=O)Cc1ccc(OCc2ccccc2)cc1 [MG 153] (Cbz-Leu-Leu-Tyr(Bn)-aldehyde) yielded a Ki of 285 nM. For CC(C)C[C@@H](C=O)NC(=O)[C@H](CC(C)C)NC(=O)[C@H](CC(C)C)NC(=O)OC(C)(C)C [MG 155] (Boc-Leu-Leu-Leu-aldehyde), the Ki was 47 nM. In the case of CC(C)CC(C=O)NC(=O)C(Cc1ccc2ccccc2c1)NC(=O)OCc1ccccc1 (stereo not drawn) [MG 279, Z-Nal-Leu-H] (Cbz-[2Nal]-Leu-aldehyde; configuration not given here), the Ki is reported as 24 nM.

Test system: chymotrypsin-like activity of the proteasome
Assay: not given
Conditions: Orlowski 1990; cited from earlier work
In the case of CC(C)C[C@@H](C=O)NC(=O)CNC(=O)CNC(=O)OCc1ccccc1 [Z-Gly-Gly-Leu-H] (Cbz-Gly-Gly-Leu-aldehyde), the “Inhibition of the chymotrypsin-like activity of the proteasome” value is listed as “inhibits the chymotrypsin-like activity of the proteasome”.

Same assay, conditions: Vinitsky et al. 1992; slow binding inhibitors; cited from earlier work
For CSCC[C@@H](C=O)NC(=O)[C@H](CC(C)C)NC(=O)[C@H](CC(C)C)NC(C)=O [Ac-LLM-H, N-acetyl-Leu-Leu-methioninal] (Ac-Leu-Leu-Met-aldehyde), the Ki is listed as 33000 nM. In the case of CC(C)C[C@H](NC(=O)OCc1ccccc1)C(=O)N[C@@H](CC(C)C)C(=O)N[C@H](C=O)Cc1ccccc1 [MG 110, Z-Leu-Leu-Phe-H] (Cbz-Leu-Leu-Phe-aldehyde), the Ki is given as 460 nM. In the case of CCOC(=O)C(=O)[C@H](Cc1ccccc1)NC(=O)[C@H](CC(C)C)NC(=O)[C@H](CC(C)C)NC(=O)OCc1ccccc1 [Z-Leu-Leu-Phe-COOEt], the Ki is given as 53000 nM.

Test system: PC12 cells
Assay: not given
Conditions: Tsubuki et al. 1993; cited from earlier work
For CC(C)C[C@@H](C=O)NC(=O)[C@H](CC(C)C)NC(=O)[C@H](CC(C)C)NC(=O)OCc1ccccc1 [Z-Leu-Leu-Leu-H, Z-L-Leucine-L-Leucine-L-Leucinal] (Cbz-Leu-Leu-Leu-aldehyde), the “Optimal concentration for initiating neurite outgrowth” value is given as 30 nM.
